These compounds were tested against T1, neuropilin-1 (NP-1) (Homo sapiens, UniProt O14786) (assay: 125I-VEGF-A165 binding). Conditions: assay not given; 125I-VEGF-A165 binding is the only concentration-response binding method described.
T1 construct: expressed in transfected cells; host or cells: porcine aortic endothelial cells (PAE/NP-1), hygromycin B selection
Protocol: Porcine aortic endothelial cells expressing neuropilin-1 (PAE/NP-1) were cultured in Ham's F12 medium containing 10% fetal bovine serum (FBS) and 25 μg/ml hygromycin B. PAE cells expressing KDR (PAE/KDR) were grown in Ham's F12 medium containing 10% FBS and 250 μg/ml […] G418. Human carcinoma cell lines (DU145, A549 and ACHN) were grown in RPMI 1640 medium containing 10% FBS and L-glutamine.
Confluent cells in 24-well plates were washed twice with phosphate-buffered saline (PBS). At 4° C. various concentrations of peptides or peptidomimetics diluted in binding medium (Dulbecco's modified Eagle's medium, 25 mM HEPES pH 7.3 containing 0.1% BSA) were added, followed by addition of 0.1 nM of ^125I-VEGF-A165 (1200-1800 Ci/mmol, GE Healthcare). After 2 h of incubation at 4° C., the medium was aspirated and washed 4 times with cold PBS. The cells were lysed with 0.25 M NaOH, 0.5% SDS solution, and the bound radioactivity of the lysates was measured in a γ counter. Non-specific binding was determined in the presence of 100-fold excess unlabelled VEGF-A165.

T1 sequence (O14786 22-923): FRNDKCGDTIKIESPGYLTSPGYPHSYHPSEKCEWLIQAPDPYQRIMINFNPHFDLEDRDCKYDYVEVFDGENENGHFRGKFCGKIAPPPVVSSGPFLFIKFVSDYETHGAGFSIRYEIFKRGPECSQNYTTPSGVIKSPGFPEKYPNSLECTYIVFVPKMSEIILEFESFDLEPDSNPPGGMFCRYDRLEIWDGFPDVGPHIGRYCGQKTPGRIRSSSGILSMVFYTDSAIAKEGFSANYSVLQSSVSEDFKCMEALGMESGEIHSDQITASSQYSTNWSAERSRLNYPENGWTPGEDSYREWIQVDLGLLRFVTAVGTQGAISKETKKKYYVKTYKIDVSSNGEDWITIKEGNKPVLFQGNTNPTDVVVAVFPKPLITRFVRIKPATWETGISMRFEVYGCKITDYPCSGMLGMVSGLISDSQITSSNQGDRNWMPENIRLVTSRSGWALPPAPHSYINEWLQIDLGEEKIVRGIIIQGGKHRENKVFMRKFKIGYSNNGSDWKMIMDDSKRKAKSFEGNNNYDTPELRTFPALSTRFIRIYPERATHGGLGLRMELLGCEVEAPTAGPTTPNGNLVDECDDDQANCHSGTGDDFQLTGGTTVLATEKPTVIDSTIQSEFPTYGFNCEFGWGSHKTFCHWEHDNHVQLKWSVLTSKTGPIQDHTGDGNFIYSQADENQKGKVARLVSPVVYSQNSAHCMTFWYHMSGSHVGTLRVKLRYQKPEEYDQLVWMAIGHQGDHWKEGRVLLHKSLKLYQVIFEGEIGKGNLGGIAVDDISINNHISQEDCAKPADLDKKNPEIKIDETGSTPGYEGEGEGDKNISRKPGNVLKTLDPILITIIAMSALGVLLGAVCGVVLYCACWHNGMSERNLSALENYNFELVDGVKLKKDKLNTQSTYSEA

IC50, < 20 µM:
N=C(N)NCCC[C@H](NC(=O)c1sccc1NS(=O)(=O)c1cccc(N)c1)C(=O)O [EG00174, (S)-2-{[3-(3-Amino-benzenesulfonylamino)-thiophene-2-carbonyl]-amino}-5-guanidino-pentanoic acid]
CC(=O)Nc1ccc(S(=O)(=O)Nc2ccsc2C(=O)N[C@@H](CCCNC(=N)N)C(=O)O)cc1 [EG00203, (S)-2-{[3-(4-Acetylamino-benzenesulfonylamino)-thiophene-2-carbonyl]-amino}-5-guanidino-pentanoic acid]
N=C(N)NCCC[C@H](NC(=O)c1sccc1NS(=O)(=O)c1ccccc1[N+](=O)[O-])C(=O)O [EG00224, (S)-5-Guanidino-2-{[3-(2-nitro-benzenesulfonylamino)-thiophene-2-carbonyl]-amino}-pentanoic acid]
N=C(N)NCCC[C@H](NC(=O)c1sccc1NS(=O)(=O)c1ccccc1N)C(=O)O [EG00225, (S)-2-{[3-(2-Amino-benzenesulfonylamino)-thiophene-2-carbonyl]-amino}-5-guanidino-pentanoic acid]
Cc1ccc2nsnc2c1S(=O)(=O)Nc1ccsc1C(=O)N[C@@H](CCCNC(=N)N)C(=O)O [EG00264, (S)-2-{[3-(5-Methyl-benzo[1,2,5]thiadiazole-5-methyl-4-sulfonylamino)-thiophene-2-carbonyl]-amino}-5-guanidino-pentanoic acid]
Cc1nc(S(=O)(=O)Nc2ccsc2C(=O)N[C@@H](CCCNC(=N)N)C(=O)O)cn1C [EG00265, (S)-2-{[3-(1,2-Dimethyl-1H-imidazole-4-sulfonylamino)-thiophene-2-carbonyl]-amino}-5-guanidino-pentanoic acid]
N=C(N)NCCC[C@H](NC(=O)c1sccc1NS(=O)(=O)c1cccc(C#CCN)c1)C(=O)O [EG00274, (S)-2-({3-[3-(3-Amino-prop-1-ynyl)-benzenesulfonylamino]-thiophene-2-carbonyl}-amino)-5-guanidino-pentanoic acid]
Cc1nn(C)c(Cl)c1CNc1cccc(S(=O)(=O)Nc2ccsc2C(=O)N[C@@H](CCCNC(=N)N)C(=O)O)c1 [EG00280, (S)-2-[(3-{3-[(5-Chloro-1,3-dimethyl-1H-pyrazol-4-ylmethyl)-amino]-benzenesulfonylamino}-thiophene-2-carbonyl)-amino]-5-guanidino-pentanoic acid]
N=C(N)NCCC[C@H](NC(=O)c1sccc1NS(=O)(=O)c1cccc(NCc2ccccn2)c1)C(=O)O [EG00283, (S)-5-Guanidino-2-[(3-{3-[(pyridin-2-ylmethyl)-amino]-benzenesulfonylamino}-thiophene-2-carbonyl)-amino]-pentanoic acid]
N=C(N)NC(=O)CC[C@H](NC(=O)c1sccc1NS(=O)(=O)c1ccccc1[N+](=O)[O-])C(=O)O [EG00285, (S)-5-Guanidino-2-{[3-(2-nitro-benzenesulfonylamino)-thiophene-2-carbonyl]-amino}-5-oxo-pentanoic acid]
N=C(N)NCCC[C@H](NC(=O)c1sccc1NS(=O)(=O)c1cc2ccccc2o1)C(=O)O [EG00287, (S)-2-{[3-(Benzofuran-2-sulfonylamino)-thiophene-2-carbonyl]-amino}-5-guanidino-pentanoic acid]
N=C(N)NCCC[C@H](NC(=O)c1sccc1NS(=O)(=O)c1cccc2nonc12)C(=O)O [EG00288, (S)-2-{[3-(Benzo[1,2,5]oxadiazole-4-sulfonylamino)-thiophene-2-carbonyl]-amino}-5-guanidino-pentanoic acid]
N=C(N)NCCC[C@H](NC(=O)c1sccc1NS(=O)(=O)c1cc2ccccc2s1)C(=O)O [EG00291, (S)-2-{[3-(Benzo[b]thiophene-2-sulfonylamino)-thiophene-2-carbonyl]-amino}-5-guanidino-pentanoic acid]
N=C(N)NCCC[C@H](NC(=O)c1sccc1NS(=O)(=O)c1cc(Br)cc2c1OCC2)C(=O)O [EG00299, (S)-2-{[3-(5-Bromo-2,3-dihydro-benzofuran-7-sulfonylamino)-thiophene-2-carbonyl]-amino}-5-guanidino-pentanoic acid]
Cc1cc(CNc2cccc(S(=O)(=O)Nc3ccsc3C(=O)N[C@@H](CCCNC(=N)N)C(=O)O)c2)n(C)n1 [EG00316, (S)-2-[(3-{3-[(2,5-Dimethyl-2H-pyrazol-3-ylmethyl)-amino]-benzenesulfonyl-amino}-thiophene-2-carbonyl)-amino]-5-guanidino-pentanoic acid]
Cc1noc(C)c1CNc1cccc(S(=O)(=O)Nc2ccsc2C(=O)N[C@@H](CCCNC(=N)N)C(=O)O)c1 [EG00317, (S)-2-[(3-{3-[(3,5-Dimethyl-isoxazol-4-ylmethyl)-amino]-benzenesulfonyl-amino}-thiophene-2-carbonyl)-amino]-5-guanidino-pentanoic acid]
Cc1nn(-c2ccccc2)c(Cl)c1CNc1cccc(S(=O)(=O)Nc2ccsc2C(=O)N[C@@H](CCCNC(=N)N)C(=O)O)c1 [EG00318, (S)-2-[(3-{3-[(5-Chloro-3-methyl-1-phenyl-1H-pyrazol-4-ylmethyl)-amino]-benzenesulfonylamino]-thiophene-2-carbonyl)-amino]-5-guanidino-pentanoic acid]
Cn1nc(CNc2cccc(S(=O)(=O)Nc3ccsc3C(=O)N[C@@H](CCCNC(=N)N)C(=O)O)c2)c2ccccc21 [EG00319, (S)-5-Guanidino-2-[(3-{3-[(1-methyl-1H-indazol-3-ylmethyl)-amino]-benzenesulfonylamino}-thiophene-2-carbonyl)-amino]-pentanoic acid]
N=C(N)NCCC[C@H](NC(=O)c1sccc1NS(=O)(=O)c1cccc(CCc2cccnc2)c1)C(=O)O [EG00323, (S)-5-Guanidino-2-({3-[3-(2-pyridin-3-yl-ethyl)-benzenesulfonylamino]-thiophene-2-carbonyl}-amino)-pentanoic acid]
Cc1nc(CNc2cccc(S(=O)(=O)Nc3ccsc3C(=O)N[C@@H](CCCNC(=N)N)C(=O)O)c2)c(C)o1 [EG00332, (S)-2-[(3-{3-[(2,5-Dimethyl-oxazol-4-ylmethyl)-amino]-benzenesulfonylamino}-thiophene-2-carbonyl)-amino]-5-guanidino-pentanoic acid]
Cc1noc(C)c1-c1cccc(S(=O)(=O)Nc2ccsc2C(=O)N[C@@H](CCCNC(=N)N)C(=O)O)c1 [EG00350, (S)-2-({3-[3-(3,5-Dimethyl-isoxazol-4-yl)-benzenesulfonylamino]-thiophene-2-carbonyl}-amino)-5-guanidino-pentanoic acid]
N=C(N)NCCC[C@H](NC(=O)c1sccc1NS(=O)(=O)c1cccc(CCCN)c1)C(=O)O [EG00369, (S)-2-({3-[3-(3-Amino-propyl)-benzenesulfonylamino]-thiophene-2-carbonyl}-amino)-5-guanidino-pentanoic acid]
Cc1noc(C)c1-c1cc2c(c(S(=O)(=O)Nc3ccsc3C(=O)N[C@@H](CCCNC(=N)N)C(=O)O)c1)OCC2 [EG00428, (S)-2-({3-[5-(3,5-Dimethyl-isoxazol-4-yl)-2,3-dihydro-benzofuran-7-sulfonyl-amino]-thiophene-2-carbonyl}-amino)-5-guanidino-pentanoic acid]
CN1CCOc2cc(-c3cc4c(c(S(=O)(=O)Nc5ccsc5C(=O)N[C@@H](CCCNC(=N)N)C(=O)O)c3)OCC4)cnc21 [EG00475, (S)-5-Guanidino-2-({3-[5-(4-methyl-3,4-dihydro-2H-pyrido[3,2-b][1,4]oxazin-7-yl)-2,3-dihydro-benzofuran-7-sulfonylamino]-thiophene-2-carbonyl}-amino)-pentanoic acid]

— US8158789B2, “Arginine derivatives with NP-I antagonistic activity” (Ark Therapeutics Group Ltd., priority 2006, dated 2012)
